{"source": "patent US20140314697A1", "about": "“Method for Inhibiting Inflammation and Reducing Melanophilin Expression with Glycine Derivatives And the Composition Thereof” (CORUM INC., priority 2013, published 2014)", "tested_on": "Raw264.7 cells", "experiment": "Cell viability on Raw264.7", "type": "cell-based, Murine", "settings": "for cell viability on Raw264.7, Entry 2: passage N + 5; for cell viability on Raw264.7, Entry 2 / cell viability on Raw264.7, Entry 3 / cell viability on Raw264.7, Entry 1 / cell viability on Raw264.7, Average: with LPS & IFN-r, Positive Control 100%; for cell viability on Raw264.7, Entry 3: passage N + 6; for cell viability on Raw264.7, Entry 1: passage N + 7", "method": "4.4. Cell Viability is Tested by Neutral Red Uptake Experience or MTT Assay.", "data": [{"smiles": "CC(=O)NCC(=O)NCCC(=O)O", "note": "[Ac-Gly-β-Ala, 3-(2-acetylamino-acetylamino)-propionic acid]", "values": [{"measurement": "cell viability on Raw264.7, Entry 2", "setting": "0.05%", "result": 101, "unit": "%"}, {"measurement": "cell viability on Raw264.7, Entry 3", "setting": "0.05%", "result": 89, "unit": "%"}, {"measurement": "cell viability on Raw264.7, Entry 1", "setting": "0.05%", "result": 101, "unit": "%"}, {"measurement": "cell viability on Raw264.7, Average", "setting": "0.05%", "result": 96, "unit": "%"}, {"measurement": "cell viability on Raw264.7, Entry 2", "setting": "0.10%", "result": 104, "unit": "%"}, {"measurement": "cell viability on Raw264.7, Entry 3", "setting": "0.10%", "result": 87, "unit": "%"}, {"measurement": "cell viability on Raw264.7, Entry 1", "setting": "0.10%", "result": 95, "unit": "%"}, {"measurement": "cell viability on Raw264.7, Average", "setting": "0.10%", "result": 97, "unit": "%"}, {"measurement": "cell viability on Raw264.7, Entry 2", "setting": "0.20%", "result": 98, "unit": "%"}, {"measurement": "cell viability on Raw264.7, Entry 3", "setting": "0.20%", "result": 91, "unit": "%"}, {"measurement": "cell viability on Raw264.7, Entry 1", "setting": "0.20%", "result": 90, "unit": "%"}, {"measurement": "cell viability on Raw264.7, Average", "setting": "0.20%", "result": 100, "unit": "%"}, {"measurement": "cell viability on Raw264.7, Entry 2", "setting": "0.40%", "result": 77, "unit": "%"}, {"measurement": "cell viability on Raw264.7, Entry 3", "setting": "0.40%", "result": 89, "unit": "%"}, {"measurement": "cell viability on Raw264.7, Entry 1", "setting": "0.40%", "result": 86, "unit": "%"}, {"measurement": "cell viability on Raw264.7, Average", "setting": "0.40%", "result": 88, "unit": "%"}, {"measurement": "Cell viability", "setting": "Raw264.7, all of dosing solution (0.05-0.4%)", "result": "higher than 85%"}]}]}
